According to ChEMBL document CHEMBL5260795, “Antifungal potential of marine natural products” (Eur J Med Chem, 2017):
≈ marks a conversion by molar mass, not a printed value. Blank lines part the entries; values can stand above or below the compound they belong to. Where a SMILES comes first, the peptide text is derived from it. [ ]: non-standard residue; d: D form. The star is where a group is joined. Tridecanoyl(3R-OH,11-Me) = CCC(C)CCCCCCC[C@@H](O)CC(=O)*; X1 = CCC(C)CC(C)CCCCC[C@@H](O)CC(=O)*; X3 = CCC(C)CCCCCCCC[C@@H](O)CC(=O)*

Assays:
Aspergillus niger [1] = assay: Antimicrobial activity against Aspergillus niger incubated for 72 hrs by standard broth dilution method; assay type: functional
Botrytis cinerea [2] = assay: Antimicrobial activity against Botrytis cinerea incubated for 72 hrs by standard broth dilution method; assay type: functional
Colletotrichum acutatum [3] = assay: Antimicrobial activity against Colletotrichum acutatum incubated for 72 hrs by standard broth dilution method; assay type: functional
Rhizoctonia solani [4] = assay: Antimicrobial activity against Rhizoctonia solani incubated for 72 hrs by standard broth dilution method; assay type: functional
Candida albicans [5] = assay: Antimicrobial activity against Candida albicans incubated for 72 hrs by standard broth dilution method; assay type: functional
Saccharomyces cerevisiae [6] = assay: Antimicrobial activity against Saccharomyces cerevisiae incubated for 72 hrs by standard broth dilution method; assay type: functional
Candida albicans [7] = assay: Antifungal activity against Candida albicans; assay type: functional, organism-based
Aspergillus niger [8] = assay: Antifungal activity against Aspergillus niger; assay type: functional
Rhizoctonia solani [9] = assay: Antifungal activity against Rhizoctonia solani; assay type: functional
Botrytis cinerea [10] = assay: Antifungal activity against Botrytis cinerea; assay type: functional
Colletotrichum acutatum [11] = assay: Antifungal activity against Colletotrichum acutatum; assay type: functional
Candida albicans [12] = assay: Antifungal activity against wild type Candida albicans; assay type: functional, organism-based
Rhizoctonia solani [13] = assay: Antifungal activity against Rhizoctonia solani incubated for 48 hrs by standard broth dilution method; assay type: functional
Phytophthora capsici = assay: Antifungal activity against Phytophthora capsici incubated for 48 hrs by standard broth dilution method; assay type: functional
Botrytis cinerea [14] = assay: Antifungal activity against Botrytis cinerea incubated for 48 hrs by standard broth dilution method; assay type: functional
Colletotrichum acutatum [15] = assay: Antifungal activity against Colletotrichum acutatum incubated for 48 hrs by standard broth dilution method; assay type: functional
Saccharomyces cerevisiae [16] = assay: Antifungal activity against Saccharomyces cerevisiae; assay type: functional
[17] = Inhibition of Candida albicans CaCdr1p transporter assessed as reduction in rhodamine 6G efflux
[18] = Inhibition of Candida albicans CaCdr1p transporter ATPase activity
Candida albicans [19] = assay: Antifungal activity against Candida albicans ATCC 24433; assay type: functional

SMILES: CC(C)C[C@H](NC(=O)[C@@H](CCCNC(=N)N)NC(=O)[C@H](NC(=O)[C@H](NC(=O)[C@@H](NC(=O)[C@H](O)[C@H](O)[C@H](CCCNC(=N)N)NC(=O)[C@@H](C)NC(=O)[C@H](C)[C@H](O)[C@H](C)CC(C)C)[C@@H](C)[C@@H](C)C(N)=O)[C@@H](C)O)[C@@H](C)O)C(=O)N(C)[C@@H](CCC(N)=O)C(=O)O
MIC (Candida albicans [7]): 0.1 µg/mL (≈ 0.0803 µM)

SMILES: CCCCCCCCCCCCCCC(=O)OCC(O)CO[C@@H]1O[C@H](CO[C@@H]2C[C@H](CO)[C@@H](O)[C@H](O)[C@H]2O)[C@@H](O)[C@H](O)[C@H]1O (stereo partly drawn)
MIC (Aspergillus niger [8]): 0.02 µg/mL (≈ 0.0313 µM)
MIC (Rhizoctonia solani [9]): 0.02 µg/mL (≈ 0.0313 µM)
MIC (Botrytis cinerea [10]): 0.02 µg/mL (≈ 0.0313 µM)
MIC (Colletotrichum acutatum [11]): 0.02 µg/mL (≈ 0.0313 µM)
MIC (Candida albicans [7]): 0.02 µg/mL (≈ 0.0313 µM)

SMILES: CCC(C)CC(C)CCCCC[C@@H](O)CC(=O)N[C@@H](CC(C)C)C(=O)N[C@@H](CCC(=O)O)C(=O)N[C@@H](CC(C)C)C(=O)N[C@@H](CC(C)C)C(=O)O (stereo partly drawn) (X1-LELL-OH)
MIC (Rhizoctonia solani [13]): 0.01 µg/mL (≈ 0.0138 µM)
MIC (Phytophthora capsici): 0.01 µg/mL (≈ 0.0138 µM)
MIC (Botrytis cinerea [14]): 0.01 µg/mL (≈ 0.0138 µM)
MIC (Colletotrichum acutatum [15]): 0.01 µg/mL (≈ 0.0138 µM)

SMILES: CCC(C)CCCCCCC[C@@H](O)CC(=O)N[C@@H](CCC(=O)O)C(=O)N[C@@H](CC(C)C)C(=O)N[C@@H](CC(C)C)C(=O)N[C@@H](C(=O)N[C@@H](CC(=O)O)C(=O)N[C@@H](CC(C)C)C(=O)N[C@@H](CC(C)C)C(=O)O)C(C)C (stereo partly drawn) ({Tridecanoyl(3R-OH,11-Me)}-ELL[dV]DLL-OH)
MIC (Rhizoctonia solani [9]): 4 µg/mL (≈ 3.84 µM)
MIC (Botrytis cinerea [10]): 4 µg/mL (≈ 3.84 µM)

SMILES: CCC(C)CCCCCCC[C@@H](O)CC(=O)N[C@@H](CC(C)C)C(=O)N[C@@H](CCC(=O)O)C(=O)N[C@@H](CC(C)C)C(=O)N[C@@H](CC(C)C)C(=O)O (stereo partly drawn) ({Tridecanoyl(3R-OH,11-Me)}-LELL-OH)
MIC (Rhizoctonia solani [13]): 0.01 µg/mL (≈ 0.014 µM)
MIC (Phytophthora capsici): 0.01 µg/mL (≈ 0.014 µM)
MIC (Botrytis cinerea [14]): 0.01 µg/mL (≈ 0.014 µM)
MIC (Colletotrichum acutatum [15]): 0.01 µg/mL (≈ 0.014 µM)

SMILES: C/C=C(\NC(=O)[C@@H](NC(=O)[C@H](O)[C@H](O)[C@H](CCCNC(=N)N)NC(=O)[C@@H](C)NC(=O)[C@H](C)[C@H](O)[C@H](C)CC(C)C)[C@@H](C)[C@@H](C)C(N)=O)C(=O)N[C@@H](C(=O)N[C@H](CCCNC(=N)N)C(=O)O)[C@@H](C)O
MIC (Candida albicans [7]): 0.1 µg/mL (≈ 0.103 µM)

SMILES: C/C=C(\NC(=O)[C@@H](NC(=O)[C@H](O)[C@H](O)[C@H](CCCNC(=N)N)NC(=O)[C@@H](C)NC(=O)[C@H](C)[C@H](O)[C@H](C)CC(C)C)[C@@H](C)[C@@H](C)C(N)=O)C(=O)N[C@@H](C(=O)N[C@H](CCCNC(=N)N)C(=O)N[C@@H](CC(C)C)C(=O)N(C)[C@@H](CCC(N)=O)C(=O)N[C@@H](C(=O)N(C)[C@@H](C)C(=O)O)[C@H](OC)c1ccc(O)cc1)[C@@H](C)O
MIC (Candida albicans [7]): 0.1 µg/mL (≈ 0.0664 µM)

SMILES: CC(C)C[C@@H](C)[C@@H](O)[C@@H](C)C(=O)N[C@H](C)C(=O)N[C@@H](CCCNC(=N)N)[C@@H](O)[C@@H](O)C(=O)N[C@H](C(=O)N[C@@H](C(=O)N[C@@H](C(=O)N[C@H](CCCNC(=N)N)C(=O)O)[C@@H](C)O)[C@@H](C)O)[C@@H](C)[C@@H](C)C(N)=O
MIC (Candida albicans [7]): 0.1 µg/mL (≈ 0.101 µM)

SMILES: CC[C@H](CCCCCCCCCCCCC(=O)N[C@@H](C)C(=O)O)O[C@@H]1O[C@H](COC(=O)CCC(=O)O)[C@@H](O)[C@H](O)[C@H]1O
MIC (Aspergillus niger [8]): 0.02 µg/mL (≈ 0.033 µM)
MIC (Rhizoctonia solani [9]): 0.02 µg/mL (≈ 0.033 µM)
MIC (Botrytis cinerea [10]): 0.02 µg/mL (≈ 0.033 µM)
MIC (Colletotrichum acutatum [11]): 0.02 µg/mL (≈ 0.033 µM)
MIC (Candida albicans [7]): 0.02 µg/mL (≈ 0.033 µM)

SMILES: C[C@@H]1CCC/C=C/C=C/[C@H](O)C[C@@H](O)C[C@@H]2O[C@@H]2/C=C/[C@@H](O)C/C=C/C=C\C(=O)O1 [GAGEOMACROLACTIN 1]
MIC (Aspergillus niger [1]): 0.02 µg/mL (≈ 0.0478 µM)
MIC (Botrytis cinerea [2]): 0.02 µg/mL (≈ 0.0478 µM)
MIC (Colletotrichum acutatum [3]): 0.02 µg/mL (≈ 0.0478 µM)
MIC (Rhizoctonia solani [4]): 0.02 µg/mL (≈ 0.0478 µM)
MIC (Candida albicans [5]): 0.02 µg/mL (≈ 0.0478 µM)
MIC (Saccharomyces cerevisiae [6]): 0.02 µg/mL (≈ 0.0478 µM)

SMILES: CCC(C)CCCCCCCC[C@@H](O)CC(=O)N[C@@H](CCC(=O)OC)C(=O)N[C@@H](CC(C)C)C(=O)N[C@@H](CC(C)C)C(=O)N[C@@H](CC(C)C)C(=O)O (stereo partly drawn) (X3-E(OMe)LLL-OH)
MIC (Rhizoctonia solani [13]): 0.01 µg/mL (≈ 0.0135 µM)
MIC (Phytophthora capsici): 0.01 µg/mL (≈ 0.0135 µM)
MIC (Botrytis cinerea [14]): 0.01 µg/mL (≈ 0.0135 µM)
MIC (Colletotrichum acutatum [15]): 0.01 µg/mL (≈ 0.0135 µM)

SMILES: CC(C)C[C@@H](C)[C@@H](O)[C@@H](C)C(=O)N[C@H](C)C(=O)N[C@@H](CCCNC(=N)N)[C@@H](O)[C@@H](O)C(=O)N[C@@H](C(=O)N[C@@H](C(=O)O)[C@@H](C)O)[C@@H](C)CC(N)=O
MIC (Candida albicans [19]): 0.07 µg/mL (≈ 0.0974 µM)

Continued, values first:

MIC (Aspergillus niger [1]): 0.02 µg/mL (≈ 0.0354 µM)
MIC (Botrytis cinerea [2]): 0.02 µg/mL (≈ 0.0354 µM)
MIC (Colletotrichum acutatum [3]): 0.02 µg/mL (≈ 0.0354 µM)
MIC (Rhizoctonia solani [4]): 0.02 µg/mL (≈ 0.0354 µM)
MIC (Candida albicans [5]): 0.02 µg/mL (≈ 0.0354 µM)
MIC (Saccharomyces cerevisiae [6]): 0.02 µg/mL (≈ 0.0354 µM)
SMILES: C[C@@H]1CCC/C=C/C=C/[C@H](O)C[C@@H](O)C/C=C\C=C\[C@@H](O[C@@H]2O[C@@H](CO)[C@H](O)[C@@H](O)[C@@H]2O)C/C=C/C=C\C(=O)O1

MIC (Candida albicans [12]): 1.95 µg/mL (≈ 2.62 µM)
SMILES: C/C(Cl)=C/C=C/C=C/C=C/C=C/C(O)=C1\C(=O)C(CC(N)=O)N([C@@H]2OC[C@@H](O)[C@H](O)[C@H]2O[C@H]2OC[C@H](O[C@H]3O[C@@H](C)[C@H](O)[C@@H]3O)[C@H](O)[C@H]2O)C1=O (stereo partly drawn)

MIC (Aspergillus niger [1]): 0.02 µg/mL (≈ 0.0497 µM)
MIC (Botrytis cinerea [2]): 0.02 µg/mL (≈ 0.0497 µM)
MIC (Colletotrichum acutatum [3]): 0.02 µg/mL (≈ 0.0497 µM)
MIC (Rhizoctonia solani [4]): 0.02 µg/mL (≈ 0.0497 µM)
MIC (Candida albicans [5]): 0.02 µg/mL (≈ 0.0497 µM)
MIC (Saccharomyces cerevisiae [6]): 0.02 µg/mL (≈ 0.0497 µM)
SMILES: C[C@@H]1CCC/C=C/CCC(=O)C[C@@H](O)C/C=C\C=C\[C@@H](O)C/C=C/C=C\C(=O)O1 [MACROLACTIN F]

MIC (Saccharomyces cerevisiae [16]): 0.22 µg/mL (≈ 0.379 µM)
SMILES: CC1CCC/C=C/[C@@H]2O[C@@H](C/C=C\C=C\[C@H](O[C@@H]3O[C@H](CO)[C@@H](O)[C@H](O)[C@H]3O)C/C=C/C=C\C(=O)O1)C[C@@H](O)[C@H]2O (stereo partly drawn)

IC50 [17]: 2.29 µg/mL (≈ 3.61 µM)
IC50 [18]: 0.31 µg/mL (≈ 0.488 µM)
SMILES: CCC[C@@H]1CC(=O)N[C@@H](CC(C)C)C(=O)N[C@H](Cc2ccccc2)C(=O)N[C@@H](CC(C)C)C(=O)N[C@@H](Cc2ccccc2)C(=O)O1

MIC (Saccharomyces cerevisiae [16]): 0.22 µg/mL (≈ 0.369 µM)
SMILES: C[C@@H]1CCC/C=C/[C@@H]2O[C@](O)(C[C@@H](O)C/C=C\C=C\C(O[C@@H]3O[C@H](CO)[C@@H](O)[C@H](O)[C@H]3O)C/C=C/C=C\C(=O)O1)[C@H]2O (stereo partly drawn)

MIC (Candida albicans [7]): 0.79 µg/mL (≈ 1.91 µM)
SMILES: C=C(CC[C@@H](C)[C@H]1CC[C@H]2C3=C(CC[C@]12C)[C@@]1(C)CC[C@H](O)C[C@@H]1C(=O)O3)C(C)C
